Measured values taken from patent US11261152B2, “Inhibitors of the N-terminal domain of the androgen receptor” (The Regents of the University of California, priority 2017, dated 2022).

Assays:
[1] = system: AR transcriptional activity (MMTV reporter); assay: MMTV reporter assay; type: cell-based; conditions: Table 3 grade HIGH/MED/LOW, grades not defined
[2] = system: AR positive PCa cells (LNCaP, LNCaP-AR, CWR22, 22Rv1, LAPC4); assay: MTT / CellTiter GLO cell viability, AR positive prostate cancer cells; conditions: for MTT AR-Pos: Table 3 grade HIGH/MED/LOW, grades not defined
Experimental: The results are means of quadruplicate expts±s.d. Top panel: CellTiter GLO luminescent bioassay (arbitrary units on vertical axis). Bottom panel: classical MTT assay ([blue/yellow]=[viable/non-viable]).
Experiments were performed in quadruplicate; results are means+/−s.d.
Results were normalized to that of vehicle control. Experiments were performed in quadruplicate; results are means+/−s.d.
Next, the effects of the compounds on growth of prostate cancer cell lines in vitro were evaluated.

[3] = system: AR-null PCa cells (DU145, PC3); assay: MTT / CellTiter GLO cell viability, AR-null prostate cancer cells; conditions: Table 3 grade HIGH/MED/LOW, grades not defined

SMILES	MMTV [1]	MTT AR-Pos [2]	MTT AR-Neg [3]	growth of AR expressing prostate cancer cells ([2]; result in words)
C=CC(O)/C(=C\c1ccc(OC)cc1)c1ccccc1 (stereo not shown) [JN014]	MED	–	–	–
C=C(CN(C)Cc1ccccc1)C(=O)/C(=C\c1ccc(Cl)cc1)c1ccc(N=[N+]=[N-])cc1.Cl [JN081]	MED	–	–	–
CN(C/C(=C\c1ccc(Cl)cc1Cl)C(=O)c1ccccc1)Cc1ccccc1.Cl [JN045]	HIGH	–	–	–
CN(C/C(=C\c1cccc(Cl)c1Cl)C(=O)c1ccccc1)Cc1ccccc1.Cl [JN042]	HIGH	–	–	–
C=CC(O)/C(=C\c1ccc(F)cc1)c1ccccc1 (stereo not shown) [JN011]	MED	–	–	–
Cc1ccccc1/C=C(\CN(C)Cc1ccccc1)C(=O)c1ccccc1 [JN049]	HIGH	–	–	–
CN(CCC(=O)/C(=C\c1ccc(Cl)cc1)c1ccccc1)Cc1ccccc1.Cl [JN002, (Z)-5-(Benzyl(methyl)amino)-1-(4-chlorophenyl)-2-phenylpent-1-en-3-one hydrochloride]	LOW	–	–	–
C=C(C)C(O)/C(=C\c1ccc(Cl)cc1)c1ccccc1 (stereo not shown) [JN034]	MED	MED	LOW	–
C=C(CN(C)Cc1ccccc1)C(=O)/C(=C\c1ccc(Cl)c(Cl)c1)c1ccccc1.Cl [JN058]	LOW	–	–	–
C=C(CN(C)Cc1ccccc1)C(=O)/C(=C\c1ccc(OC)cc1)c1ccccc1.Cl [JN056]	LOW	–	–	–
C=C(CN(C)Cc1ccccc1)C(=O)/C(=C/c1ccc(Cl)cc1)c1cccc(Cl)c1.Cl [JN075]	MED	HIGH	HIGH	–
C=C(CN(C)Cc1ccccc1)C(=O)/C(=C/c1ccc(Cl)cc1)c1ccc(N=[N+]=[N-])cc1.Cl [JN080]	HIGH	LOW	LOW	–
CN(C/C(=C\c1ccccc1Cl)C(=O)c1ccccc1)Cc1ccccc1.Cl [JN046]	HIGH	–	–	–
C=C(CN(C)Cc1ccccc1)C(=O)/C(=C/c1cccc(C(F)(F)F)c1)c1ccccc1.Cl [JN073]	LOW	–	–	–
C=CC(O)/C(=C\c1ccc(C)cc1)c1ccccc1 (stereo not shown) [JN012]	LOW	–	–	–
C=C(CN(C)Cc1ccccc1)C(=O)C(=Cc1ccco1)c1ccccc1.Cl [JN061]	LOW	–	–	–
O=C(/C(=C/c1ccc(Cl)cc1)CN1CCCCC1)c1ccccc1 [JN037]	MED	–	–	–
C=C(CN(C)Cc1ccccc1)C(=O)/C(=C/c1cc(Cl)cc(Cl)c1)c1ccccc1.Cl [JN068]	LOW	–	–	–
CN(C)CCC(=O)/C(=C\c1ccc(Cl)cc1)c1ccccc1.Cl [JN007]	MED	–	–	–
C=C(C)C(=O)/C(=C/c1ccc(Cl)cc1)c1ccccc1 [JN032]	HIGH	HIGH	LOW	–
C=C(CN(C)C)C(=O)/C(=C\c1ccc(Cl)cc1)c1ccccc1.Cl [JN023]	LOW	LOW	LOW	–
C=C(CN(C)Cc1ccccc1)C(=O)/C(=C/c1cccc(Br)c1)c1ccccc1.Cl [JN071]	LOW	–	–	–
C=C(CN(C)Cc1ccccc1)C(=O)/C(=C\c1ccc(Br)cc1)c1ccccc1.Cl [JN020]	LOW	LOW	–	–
CN(CCC(=O)/C(=C\c1ccc(Cl)cc1)c1ccccc1)Cc1ccccc1 [JN001, (Z)-5-(Benzyl(methyl)amino)-1-(4-chlorophenyl)-2-phenylpent-1-en-3-one]	LOW	–	–	–
C=C(CN(C)Cc1ccccc1)C(=O)/C(=C/c1ccc(Br)cc1)c1ccccc1.Cl [JN021]	LOW	LOW	MED	–
C=C(CN(C)Cc1ccccc1)C(=O)/C(=C/c1ccc(Cl)cc1)c1ccc(Cl)cc1.Cl [JN074]	HIGH	HIGH	HIGH	–
CN1CCN(CCC(=O)/C(=C\c2ccc(Cl)cc2)c2ccccc2)CC1.Cl [JN009]	LOW	–	–	–

SMILES	MMTV [1]	MTT AR-Pos [2]	MTT AR-Neg [3]	growth of AR expressing prostate cancer cells ([2]; result in words)
C=C(CN(C)Cc1ccccc1)C(=O)/C(=C/c1ccc(C)cc1)c1ccccc1.Cl [JN066]	LOW	–	–	–
CC(C)N(C/C(=C\c1ccc(Cl)cc1)C(=O)c1ccccc1)C(C)C [JN036]	HIGH	MED/HIGH	LOW/MED	–
C=C(CN(C)Cc1ccccc1)C(=O)/C(=C/c1ccccc1)c1ccccc1.Cl [JN062]	LOW	HIGH	HIGH	–
C=C(CN1CCCC1)C(=O)/C(=C/c1ccc(Cl)cc1)c1ccccc1.Cl [JN078]	LOW	–	–	–
COc1ccc(/C=C(\C(=O)CCN(C)C)c2ccccc2)cc1.Cl [JN016]	HIGH	–	–	–
C=C(C)C(O)/C(=C/c1ccc(Cl)cc1)c1ccccc1 (stereo not shown) [JN033]	MED	LOW	LOW	–
C=CC(O)/C(=C\c1ccc(Br)cc1)c1ccccc1 (stereo not shown) [JN010]	LOW	–	–	–
C=CC(O)/C(=C/c1ccc(C)cc1)c1ccccc1 (stereo not shown) [JN013]	MED	–	–	–
Cl.O=C(CCN1CCCC1)/C(=C\c1ccc(Cl)cc1)c1ccccc1 [JN006]	LOW	–	–	–
C=C(CN(C)Cc1ccccc1)C(=O)/C(=C/c1ccc(Cl)cc1)c1ccccc1Cl.Cl [JN076]	HIGH	HIGH	MED	–
C=C(CN(C)Cc1ccccc1)C(=O)/C(=C\c1ccc(C)cc1)c1ccccc1.Cl [JN067]	LOW	–	–	–
C=C(CN(C)Cc1ccccc1)C(=O)/C(=C\c1ccc(Cl)cc1)c1ccccc1.Cl [JN019]	–	LOW	–	–
CN(C/C(=C\c1cccc(Br)c1)C(=O)c1ccccc1)Cc1ccccc1 [JN040]	HIGH	–	–	–
CC(C)CN(C/C(=C\c1ccc(Cl)cc1)C(=O)c1ccccc1)CC(C)C [JN035]	HIGH	–	–	–
C=C(C)C(=O)NC(=O)/C(=C/c1cccs1)c1ccccc1 [JN128]	–	–	–	selective growth inhibitory effects
C=CC(O)/C(=C/c1ccc(Cl)cc1)c1ccccc1 (stereo not shown) [JN005, (E)-1-(4-Chlorophenyl)-2-phenylpenta-1,4-dien-3-ol]	MED	–	–	–
CN(C/C(=C\c1ccccc1Br)C(=O)c1ccccc1)Cc1ccccc1.Cl [JN041]	HIGH	–	–	–
C=C(CN(C)Cc1ccccc1)C(=O)/C(=C\c1ccc(C(F)(F)F)cc1)c1ccccc1.Cl [JN065]	HIGH	MED	LOW	–
C=C(CN(C)Cc1ccccc1)C(=O)/C(=C\c1ccccc1)c1ccccc1.Cl [JN063]	MED	–	–	–
C=C(CN(C)Cc1ccccc1)C(=O)/C(=C/c1cccc(F)c1)c1ccccc1.Cl [JN069]	MED	–	–	–
CN(C/C(=C\c1ccccc1)C(=O)c1ccccc1)Cc1ccccc1 [JN047]	HIGH	–	–	–
C=CC(=O)/C(=C\c1ccc(Cl)cc1)c1ccccc1 [JN004, (Z)-1-(4-Chlorophenyl)-2-phenylpenta-1,4-dien-3-one]	LOW	–	–	–
C=C(CN1CCNCC1)C(=O)/C(=C/c1ccc(Cl)cc1)c1ccccc1.Cl [JN079]	LOW	–	–	–
C=C(CN(C)Cc1ccccc1)C(=O)/C(=C/c1ccc(F)cc1)c1ccccc1.Cl [JN054]	MED	LOW	–	–
C=C(CN1CCCCC1)C(=O)/C(=C/c1ccc(Cl)cc1)c1ccccc1.Cl [JN077]	HIGH	LOW	LOW	–
C=C(CN(C)Cc1ccccc1)C(=O)/C(=C\c1cccc(C(F)(F)F)c1)c1ccccc1.Cl [JN072]	LOW	–	–	–
C=C(CN(C)Cc1ccccc1)C(=O)/C(=C\c1cccc(Br)c1)c1ccccc1.Cl [JN070]	MED	–	–	–
